From the supplement of paper PMC10307832

How the values were obtained:
Test in all cases: relative viability (nuclei count vs DMSO), 5 days (fraction); higher = more cells survive
201T = system: 201T
Summary of the method: (§1)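 Medians of duplicate plates are given as relative viability. That measure is the nuclei count in treated wells divided by the count in vehicle wells. Counts were taken on 4× images of lung cancer cell lines in 1536-well plates, 5 days after pin-tool dosing the day after seeding with one drug alone or a fixed anchor-drug dose plus five library-drug doses (not always all listed) in √10 steps.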

COR-L23 = system: COR-L23
Summary of the method: as §1

EPLC-272H = system: EPLC-272H
Summary of the method: as §1

H3255 = system: H3255
Summary of the method: as §1

HCC-44 = system: HCC-44
Summary of the method: as §1

LOU-NH91 = system: LOU-NH91
Summary of the method: as §1

NCI-H1563 = system: NCI-H1563
Summary of the method: as §1

NCI-H1650 = system: NCI-H1650
Summary of the method: as §1

NCI-H1734 = system: NCI-H1734
Summary of the method: as §1

NCI-H1793 = system: NCI-H1793
Summary of the method: as §1

NCI-H1993 = system: NCI-H1993
Summary of the method: as §1

NCI-H2023 = system: NCI-H2023
Summary of the method: as §1

NCI-H2085 = system: NCI-H2085
Summary of the method: as §1

NCI-H2170 = system: NCI-H2170
Summary of the method: as §1

NCI-H2347 = system: NCI-H2347
Summary of the method: as §1

NCI-H2405 = system: NCI-H2405
Summary of the method: as §1

NCI-H3122 = system: NCI-H3122
Summary of the method: as §1

NCI-H441 = system: NCI-H441
Summary of the method: as §1

NCI-H520 = system: NCI-H520
Summary of the method: as §1

NCI-H647 = system: NCI-H647
Summary of the method: as §1

PC-14 = system: PC-14
Summary of the method: as §1

RERF-LC-KJ = system: RERF-LC-KJ
Summary of the method: as §1

SW 900 = system: SW 900
Summary of the method: as §1

C=C1C(=O)O[C@@H](CCCCCCCC)[C@@H]1C(=O)O [C-75] + N=C(N)NC(=N)NCCc1ccccc1 [Phenformin] (partner 250 µM)
relative viability (201T; first compound 0.08 µM): 0.42 | relative viability (201T; first compound 0.253 µM): 0.484 | relative viability (201T; first compound 0.8 µM): 0.425 | relative viability (201T; first compound 2.53 µM): 0.43 | relative viability (201T; first compound 8 µM): 0.459 | relative viability (COR-L23; first compound 0.08 µM): 0.44 | relative viability (COR-L23; first compound 0.253 µM): 0.386 | relative viability (COR-L23; first compound 0.8 µM): 0.41 | relative viability (COR-L23; first compound 2.53 µM): 0.42 | relative viability (COR-L23; first compound 8 µM): 0.421 | relative viability (EPLC-272H; first compound 0.08 µM): 0.33 | relative viability (EPLC-272H; first compound 0.253 µM): 0.281 | relative viability (EPLC-272H; first compound 0.8 µM): 0.276 | relative viability (EPLC-272H; first compound 2.53 µM): 0.28 | relative viability (EPLC-272H; first compound 8 µM): 0.271 | relative viability (H3255; first compound 0.08 µM): 0.345 | relative viability (H3255; first compound 0.253 µM): 0.352 | relative viability (H3255; first compound 0.8 µM): 0.392 | relative viability (H3255; first compound 2.53 µM): 0.337 | relative viability (H3255; first compound 8 µM): 0.331 | relative viability (HCC-44; first compound 0.08 µM): 0.294 | relative viability (HCC-44; first compound 0.253 µM): 0.185 | relative viability (HCC-44; first compound 0.8 µM): 0.176 | relative viability (HCC-44; first compound 2.53 µM): 0.157 | relative viability (HCC-44; first compound 8 µM): 0.142 | relative viability (LOU-NH91; first compound 0.08 µM): 0.715 | relative viability (LOU-NH91; first compound 0.253 µM): 0.741 | relative viability (LOU-NH91; first compound 0.8 µM): 0.612 | relative viability (LOU-NH91; first compound 2.53 µM): 0.532 | relative viability (LOU-NH91; first compound 8 µM): 0.749 | relative viability (NCI-H1563; first compound 0.08 µM): 0.656 | relative viability (NCI-H1563; first compound 0.253 µM): 0.64 | relative viability (NCI-H1563; first compound 0.8 µM): 0.655 | relative viability (NCI-H1563; first compound 2.53 µM): 0.63 | relative viability (NCI-H1563; first compound 8 µM): 0.691 | relative viability (NCI-H1650; first compound 0.08 µM): 0.47 | relative viability (NCI-H1650; first compound 0.253 µM): 0.502 | relative viability (NCI-H1650; first compound 2.53 µM): 0.448 | relative viability (NCI-H1650; first compound 8 µM): 0.491 | relative viability (NCI-H1734; first compound 0.08 µM): 0.413 | relative viability (NCI-H1734; first compound 0.253 µM): 0.427 | relative viability (NCI-H1734; first compound 0.8 µM): 0.356 | relative viability (NCI-H1734; first compound 2.53 µM): 0.286 | relative viability (NCI-H1734; first compound 8 µM): 0.283 | relative viability (NCI-H1793; first compound 0.08 µM): 0.365 | relative viability (NCI-H1793; first compound 0.253 µM): 0.362 | relative viability (NCI-H1793; first compound 0.8 µM): 0.287 | relative viability (NCI-H1793; first compound 2.53 µM): 0.29 | relative viability (NCI-H1793; first compound 8 µM): 0.486 | relative viability (NCI-H1993; first compound 0.08 µM): 0.528 | relative viability (NCI-H1993; first compound 0.253 µM): 0.574 | relative viability (NCI-H1993; first compound 0.8 µM): 0.476 | relative viability (NCI-H1993; first compound 2.53 µM): 0.46 | relative viability (NCI-H1993; first compound 8 µM): 0.506 | relative viability (NCI-H2023; first compound 0.08 µM): 0.394 | relative viability (NCI-H2023; first compound 0.253 µM): 0.502 | relative viability (NCI-H2023; first compound 0.8 µM): 0.367 | relative viability (NCI-H2023; first compound 2.53 µM): 0.384 | relative viability (NCI-H2023; first compound 8 µM): 0.372 | relative viability (NCI-H2085; first compound 0.08 µM): 0.827 | relative viability (NCI-H2085; first compound 0.253 µM): 0.693 | relative viability (NCI-H2085; first compound 0.8 µM): 0.629 | relative viability (NCI-H2085; first compound 2.53 µM): 0.63 | relative viability (NCI-H2085; first compound 8 µM): 0.67 | relative viability (NCI-H2170; first compound 0.08 µM): 0.469 | relative viability (NCI-H2170; first compound 0.253 µM): 0.453 | relative viability (NCI-H2170; first compound 0.8 µM): 0.419 | relative viability (NCI-H2170; first compound 2.53 µM): 0.404 | relative viability (NCI-H2170; first compound 8 µM): 0.481 | relative viability (NCI-H2347; first compound 0.08 µM): 0.506 | relative viability (NCI-H2347; first compound 0.253 µM): 0.599 | relative viability (NCI-H2347; first compound 0.8 µM): 0.401 | relative viability (NCI-H2347; first compound 8 µM): 0.379 | relative viability (NCI-H2405; first compound 0.08 µM): 0.387 | relative viability (NCI-H2405; first compound 0.253 µM): 0.331 | relative viability (NCI-H2405; first compound 0.8 µM): 0.405 | relative viability (NCI-H2405; first compound 2.53 µM): 0.368 | relative viability (NCI-H2405; first compound 8 µM): 0.45 | relative viability (NCI-H3122; first compound 0.08 µM): 0.405 | relative viability (NCI-H3122; first compound 0.253 µM): 0.406 | relative viability (NCI-H3122; first compound 0.8 µM): 0.384 | relative viability (NCI-H3122; first compound 8 µM): 0.408 | relative viability (NCI-H441; first compound 0.08 µM): 0.784 | relative viability (NCI-H441; first compound 0.253 µM): 0.725 | relative viability (NCI-H441; first compound 0.8 µM): 0.784 | relative viability (NCI-H441; first compound 2.53 µM): 0.672 | relative viability (NCI-H441; first compound 8 µM): 0.787 | relative viability (NCI-H520; first compound 0.08 µM): 0.539 | relative viability (NCI-H520; first compound 0.253 µM): 0.747 | relative viability (NCI-H520; first compound 0.8 µM): 0.464 | relative viability (NCI-H520; first compound 2.53 µM): 0.389 | relative viability (NCI-H520; first compound 8 µM): 0.482 | relative viability (NCI-H647; first compound 0.08 µM): 0.52 | relative viability (NCI-H647; first compound 0.253 µM): 0.58 | relative viability (NCI-H647; first compound 0.8 µM): 0.417 | relative viability (NCI-H647; first compound 2.53 µM): 0.374 | relative viability (NCI-H647; first compound 8 µM): 0.382 | relative viability (PC-14; first compound 0.08 µM): 0.469 | relative viability (PC-14; first compound 0.253 µM): 0.516 | relative viability (PC-14; first compound 0.8 µM): 0.479 | relative viability (PC-14; first compound 2.53 µM): 0.549 | relative viability (PC-14; first compound 8 µM): 0.526 | relative viability (RERF-LC-KJ; first compound 0.08 µM): 0.427 | relative viability (RERF-LC-KJ; first compound 0.253 µM): 0.452 | relative viability (RERF-LC-KJ; first compound 0.8 µM): 0.398 | relative viability (RERF-LC-KJ; first compound 2.53 µM): 0.469 | relative viability (RERF-LC-KJ; first compound 8 µM): 0.405 | relative viability (SW 900; first compound 0.08 µM): 0.642 | relative viability (SW 900; first compound 0.253 µM): 0.58 | relative viability (SW 900; first compound 0.8 µM): 0.513 | relative viability (SW 900; first compound 2.53 µM): 0.535 | relative viability (SW 900; first compound 8 µM): 0.495
